From PMC12090193, “Flavonoid carbamate hybrids: design, synthesis, and evaluation as multi-target enzyme inhibitors for Alzheimer's disease” (RSC Advances, 2025)
Read-outs that look alike come from different tables or passages of the source.

How the values were obtained:
MAGL = biological target: T1, MAGL (Homo sapiens, UniProt Q99685); test: biochemical
T1 construct: purchased Finetest (China)
T1 sequence (Q99685 1-303): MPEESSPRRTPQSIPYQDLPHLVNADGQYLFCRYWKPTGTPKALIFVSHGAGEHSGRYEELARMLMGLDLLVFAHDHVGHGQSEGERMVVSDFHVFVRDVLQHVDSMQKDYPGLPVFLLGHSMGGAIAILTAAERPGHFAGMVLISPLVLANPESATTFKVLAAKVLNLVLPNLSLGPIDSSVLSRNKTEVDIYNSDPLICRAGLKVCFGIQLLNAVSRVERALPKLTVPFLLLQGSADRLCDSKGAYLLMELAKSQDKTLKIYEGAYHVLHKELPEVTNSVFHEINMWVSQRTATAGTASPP
Method: The MAGL inhibitory activity of the synthesized compounds was assessed using a spectrophotometric assay, employing 4-NPA as a surrogate substrate. The experimental procedure was adapted from a previously published protocol with minor modifications.[37]
The assay was conducted at room temperature using an ELISA reader (EMR-500) with a 96-well plate, with a total reaction volume of 200 μL per well. The reaction system comprised 10 mM tris–HCl buffer (pH 7.2), 1 mM EDTA, and 0.1 mg mL^−1 bovine serum albumin. […] The negative control was prepared by replacing the inhibitor with 10 μL of DMSO. The enzymatic reaction was initiated by adding 40 μL of MAGL enzyme solution (11 ng per well), while the blank control used buffer instead of the enzyme. The reaction mixtures were incubated for 30 minutes, and absorbance was measured at 405 nm. Each sample was tested in triplicate, and IC50 values were determined from the obtained data using GraphPad Prism 8.4.3.

AChE = biological target: T2, AChE (Homo sapiens, UniProt P22303); test: AChE inhibition assay (Ellman's method); assay type: biochemical
T2 construct: purchased Sigma-Aldrich (Germany)
T2 sequence (P22303 32-614): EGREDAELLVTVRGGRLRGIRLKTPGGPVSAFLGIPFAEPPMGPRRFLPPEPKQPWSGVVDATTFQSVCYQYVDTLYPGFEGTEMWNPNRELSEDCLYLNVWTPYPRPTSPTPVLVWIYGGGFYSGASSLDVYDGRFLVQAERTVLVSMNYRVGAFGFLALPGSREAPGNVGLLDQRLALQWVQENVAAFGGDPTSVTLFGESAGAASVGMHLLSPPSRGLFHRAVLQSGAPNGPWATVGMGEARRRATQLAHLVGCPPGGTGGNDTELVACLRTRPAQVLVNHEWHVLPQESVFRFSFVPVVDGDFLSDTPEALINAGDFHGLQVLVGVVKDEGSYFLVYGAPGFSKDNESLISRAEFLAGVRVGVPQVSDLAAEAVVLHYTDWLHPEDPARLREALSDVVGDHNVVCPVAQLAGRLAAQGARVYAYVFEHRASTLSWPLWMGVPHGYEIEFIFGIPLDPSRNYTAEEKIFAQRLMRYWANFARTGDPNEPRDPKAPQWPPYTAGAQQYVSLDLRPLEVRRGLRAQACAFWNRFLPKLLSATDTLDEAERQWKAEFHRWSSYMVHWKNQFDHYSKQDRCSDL
Method: The AChE inhibitory activity of the synthesized compounds was determined using Ellman's method, with slight modifications to optimize experimental conditions.[35] The assay was performed following the procedures described in our previous study.[36]

[1] = 4-NPA 100 μM, 30 min, absorbance 405 nm, triplicate, read-out: IC50 ± SD MAGL
[2] = Ellman's method, read-out: IC50 ± SD AChE

Row | SMILES | IC50 (MAGL; [1]) | IC50 (AChE; [2]) | IC50 (MAGL) | IC50 (AChE)
1 | O=c1cc(-c2ccccc2)oc2cc(O)cc(O)c12 [Chrysin, reference compound] | 169 ± 11.4 µM | 157 ± 11.7 µM | – | –
2 | CN(C)C(=O)Oc1cc(O)c2c(=O)cc(-c3ccccc3)oc2c1 [Compound C1, 5-Hydroxy-4-oxo-2-phenyl-4H-chromen-7-yl dimethylcarbamate] | – | – | 72.2 ± 5.34 µM | 188 ± 16.2 µM
3 | CN(C)C(=O)Oc1cc(OC(=O)N(C)C)c2c(=O)cc(-c3ccccc3)oc2c1 [Compound C2, 4-Oxo-2-phenyl-4H-chromene-5,7-diyl bis(dimethylcarbamate)] | – | – | 96.4 ± 1.54 µM | > 200 µM
4 | CCN(CC)C(=O)Oc1cc(O)c2c(=O)cc(-c3ccccc3)oc2c1 [Compound C3, 5-Hydroxy-4-oxo-2-phenyl-4H-chromen-7-yl diethylcarbamate] | 22.9 ± 1.3 µM | 61.8 ± 1.42 µM | – | –
5 | CCN(CC)C(=O)Oc1cc(OC(=O)N(CC)CC)c2c(=O)cc(-c3ccccc3)oc2c1 [Compound C4, 4-Oxo-2-phenyl-4H-chromene-5,7-diyl bis(diethylcarbamate)] | > 200 µM | > 200 µM | – | –
6 | CCN(C)C(=O)Oc1cc(O)c2c(=O)cc(-c3ccccc3)oc2c1 [Compound C5, 5-Hydroxy-4-oxo-2-phenyl-4H-chromen-7-yl ethyl(methyl)carbamate] | – | – | 46.6 ± 2.23 µM | 89.4 ± 5.66 µM
7 | CCN(C)C(=O)Oc1cc(OC(=O)N(C)CC)c2c(=O)cc(-c3ccccc3)oc2c1 [Compound C6, 4-Oxo-2-phenyl-4H-chromene-5,7-diyl bis(ethyl(methyl)carbamate)] | – | – | > 200 µM | > 200 µM
8 | CN(C)C(=O)Oc1ccc(-c2oc3cc(OC(=O)N(C)C)cc(O)c3c(=O)c2OC(=O)N(C)C)cc1 [Compound K1, 2-(4-((Dimethylcarbamoyl)oxy)phenyl)-5-hydroxy-4-oxo-4H-chromene-3,7-diyl bis(dimethylcarbamate)] | – | – | 126 ± 8.28 µM | 100 ± 7.85 µM
9 | CN(C)C(=O)Oc1ccc(-c2oc3cc(OC(=O)N(C)C)cc(OC(=O)N(C)C)c3c(=O)c2OC(=O)N(C)C)cc1 [Compound K2, 2-(4-((Dimethylcarbamoyl)oxy)phenyl)-4-oxo-4H-chromene-3,5,7-triyl tris(dimethylcarbamate)] | – | – | > 200 µM | > 200 µM
10 | CCN(CC)C(=O)Oc1ccc(-c2oc3cc(OC(=O)N(CC)CC)cc(O)c3c(=O)c2OC(=O)N(CC)CC)cc1 [Compound K3, 2-(4-((Diethylcarbamoyl)oxy)phenyl)-5-hydroxy-4-oxo-4H-chromene-3,7-diyl bis(diethylcarbamate)] | 61.6 ± 3.01 µM | 146 ± 10.4 µM | – | –
11 | CCN(CC)C(=O)Oc1ccc(-c2oc3cc(OC(=O)N(CC)CC)cc(OC(=O)N(CC)CC)c3c(=O)c2OC(=O)N(CC)CC)cc1 [Compound K4, 2-(4-((Diethylcarbamoyl)oxy)phenyl)-4-oxo-4H-chromene-3,5,7-triyl tris(diethylcarbamate)] | > 200 µM | > 200 µM | – | –
12 | CCN(C)C(=O)Oc1ccc(-c2oc3cc(OC(=O)N(C)CC)cc(O)c3c(=O)c2OC(=O)N(C)CC)cc1 [Compound K5, 2-(4-((Ethyl(methyl)carbamoyl)oxy)phenyl)-5-hydroxy-4-oxo-4H-chromene-3,7-diyl bis(ethyl(methyl)carbamate)] | – | – | 60.1 ± 4.74 µM | > 200 µM
13 | CCN(C)C(=O)Oc1ccc(-c2oc3cc(OC(=O)N(C)CC)cc(OC(=O)N(C)CC)c3c(=O)c2OC(=O)N(C)CC)cc1 [Compound K6, 2-(4-((Ethyl(methyl)carbamoyl)oxy)phenyl)-4-oxo-4H-chromene-3,5,7-triyl tris(ethyl(methyl)carbamate)] | – | – | 178 ± 9.12 µM | > 200 µM
14 | O=c1c(O)c(-c2ccc(O)cc2)oc2cc(O)cc(O)c12 [Kaempferol, reference compound] | 189 ± 7.89 µM | – | – | 226 ± 17.9 µM
